According to BindingDB's records for doi:10.1016/j.chembiol.2007.12.010 (Brandeis University, 2008):

Experiments:
Test in all cases: Enzyme Inhibition Assay
Settings in all cases: pH 8; 25 °C
[1] = biological target: Inosine-5'-monophosphate dehydrogenase 1 (Homo sapiens, UniProt P20839)
Source text: (§1) Enzyme inhibition assay using recombinant human IMPDH1 and IMPDH2 and C.parvum were expressed in guaB strains of escherichia coli.

[2] = biological target: Inosine-5'-monophosphate dehydrogenase 2 (Homo sapiens, UniProt P12268)
Source text: as §1

[3] = biological target: T1, Inosine-5-monophosphate dehydrogenase (Cryptosporidium parvum, UniProt Q5CPK7)
T1 sequence (Q5CPK7 whole entry): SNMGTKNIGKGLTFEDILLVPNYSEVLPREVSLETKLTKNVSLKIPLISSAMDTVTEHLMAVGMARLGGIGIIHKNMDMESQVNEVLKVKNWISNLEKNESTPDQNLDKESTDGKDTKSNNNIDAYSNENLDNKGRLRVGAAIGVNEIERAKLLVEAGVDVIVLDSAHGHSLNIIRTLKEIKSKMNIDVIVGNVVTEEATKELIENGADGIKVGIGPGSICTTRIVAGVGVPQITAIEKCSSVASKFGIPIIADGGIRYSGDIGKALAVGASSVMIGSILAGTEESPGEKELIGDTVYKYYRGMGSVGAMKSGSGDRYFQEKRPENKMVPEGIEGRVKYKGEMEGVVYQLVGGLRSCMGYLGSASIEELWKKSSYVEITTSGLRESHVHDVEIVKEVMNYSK
Source text: as §1

Sequence of Inosine-5'-monophosphate dehydrogenase 1 (P20839 whole entry): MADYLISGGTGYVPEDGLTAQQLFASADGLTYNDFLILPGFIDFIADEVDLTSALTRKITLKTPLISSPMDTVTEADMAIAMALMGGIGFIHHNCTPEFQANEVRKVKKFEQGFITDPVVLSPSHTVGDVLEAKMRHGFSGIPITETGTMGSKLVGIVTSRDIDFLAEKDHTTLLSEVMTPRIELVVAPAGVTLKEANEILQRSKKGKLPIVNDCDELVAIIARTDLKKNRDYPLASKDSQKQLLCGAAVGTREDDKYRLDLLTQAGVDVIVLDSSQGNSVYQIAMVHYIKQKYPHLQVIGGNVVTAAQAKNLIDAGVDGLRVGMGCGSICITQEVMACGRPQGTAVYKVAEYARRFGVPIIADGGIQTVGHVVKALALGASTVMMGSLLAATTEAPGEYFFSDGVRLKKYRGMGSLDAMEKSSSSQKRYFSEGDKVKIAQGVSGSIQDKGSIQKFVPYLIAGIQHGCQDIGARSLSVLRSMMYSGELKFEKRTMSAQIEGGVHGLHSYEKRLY

| Structure (SMILES) | IC50 [1] | IC50 [2] | IC50 [3] |
| --- | --- | --- | --- |
| O=C(N/C=N\c1cccnc1)C1COc2ccccc2O1 (configuration not stated) [N-[(Z)-N-(pyridin-3-yl)carboximidoyl]-2,3-dihydro-1,4-benzodioxine-2-carboxamide, K] | > 500 µM | > 500 µM | 19 µM |
| CC(Oc1ccccc1)C(=O)Nc1ccc(Cl)cc1 (configuration not stated) | > 50 µM | > 50 µM | 3.3 µM |
| O=c1[nH]c2ccc(Oc3ccc4[nH]c(=O)c(=O)[nH]c4c3)cc2[nH]c1=O [Tetrahydroquinoxalin analog, J] | > 50 µM | > 50 µM | 5.9 µM |
| COC(=O)c1c(C)c(=O)[nH]c2ccccc12 [methyl 3-methyl-2-oxo-1,2-dihydroquinoline-4-carboxylate, Compound E] | > 25 µM | > 25 µM | 1.6 µM |
